From PMC6365646, “Oxidative Pathways of Deoxyribose and Deoxyribonate Catabolism” (mSystems, 2019) come the findings set out here.

Molecules are shown by their SMILES.

The target of this assay is T1, deoxyribose dehydrogenase (iorAB-like dehydrogenase) (Pseudomonas simiae, UniProt A0A1N7UDX6).
T1 construct: gene PS417_10885; each subunit His-tagged (pET32a) in E. coli BL21(DE3), bands at 80 kDa (10885) and 17 kDa (10890); not purified, two clarified lysates mixed; native cytochrome c PS417_10880 not included; with Isoquinoline 1-oxidoreductase subunit alpha-like (deoxyribose dehydrogenase small subunit)
T1 sequence (A0A1N7UDX6 2-739): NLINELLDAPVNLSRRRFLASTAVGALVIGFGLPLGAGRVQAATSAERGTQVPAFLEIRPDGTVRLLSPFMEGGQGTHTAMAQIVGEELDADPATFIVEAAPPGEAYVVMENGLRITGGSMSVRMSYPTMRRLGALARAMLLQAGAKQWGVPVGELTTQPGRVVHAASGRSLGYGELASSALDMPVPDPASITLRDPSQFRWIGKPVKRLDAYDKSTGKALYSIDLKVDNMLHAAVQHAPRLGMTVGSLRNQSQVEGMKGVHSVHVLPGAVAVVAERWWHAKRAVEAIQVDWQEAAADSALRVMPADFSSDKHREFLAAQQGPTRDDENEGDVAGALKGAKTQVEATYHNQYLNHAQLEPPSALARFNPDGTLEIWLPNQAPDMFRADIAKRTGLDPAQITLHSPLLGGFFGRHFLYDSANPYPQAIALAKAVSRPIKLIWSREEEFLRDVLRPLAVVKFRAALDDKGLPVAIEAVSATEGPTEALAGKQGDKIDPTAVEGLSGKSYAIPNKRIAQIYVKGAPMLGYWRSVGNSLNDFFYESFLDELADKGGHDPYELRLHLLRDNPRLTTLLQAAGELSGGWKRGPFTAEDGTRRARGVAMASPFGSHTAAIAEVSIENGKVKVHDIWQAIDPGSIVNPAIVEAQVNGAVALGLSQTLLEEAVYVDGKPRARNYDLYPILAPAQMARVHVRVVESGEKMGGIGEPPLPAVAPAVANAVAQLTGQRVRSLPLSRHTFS
T1 sequence (A0A1N7UJP4 1-151 partner): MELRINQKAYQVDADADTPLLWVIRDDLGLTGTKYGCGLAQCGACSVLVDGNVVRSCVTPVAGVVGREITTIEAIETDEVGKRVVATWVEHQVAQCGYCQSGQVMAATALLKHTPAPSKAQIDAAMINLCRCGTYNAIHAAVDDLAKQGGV
Put plainly: LC-MS/MS detection of deoxyribonate product, mixed E. coli lysates against empty-vector lysate. To be noted: 1 mM deoxyribose, 100 uM phenazine methosulfate as electron acceptor, 100 mM NH4HCO3, room temperature, 1 h, with or without lactonase. In kind it is biochemical.

Regarding `O=C(O)C[C@H](O)[C@H](O)CO` [2-deoxy-D-ribonate], the “LC-MS/MS detection of deoxyribonate product, mixed E. coli lysates against empty” value (may form through spontaneous or lysate hydrolysis of deoxyribono) is reported as “this product had a fragmentation pattern very similar to that of a 2-deoxy-D-ribonate standard”.

`OC[C@H]1OC(O)C[C@@H]1O` (stereo partly drawn) [2-deoxy-D-ribose]: the “LC-MS/MS detection of deoxyribonate product, mixed E. coli lysates against empty” value is on record as “The iorAB-like dehydrogenase converted deoxyribose to a compound with the same mass-to-charge ratio”.
